These results are taken from ChEMBL document CHEMBL1268963, “Identification of a sulfonoquinovosyldiacylglyceride from Azadirachta indica and studies on its cytotoxic activity and DNA binding properties” (Bioorg Med Chem Lett, 2010).

For assay [1], the system named is Calf thymus DNA. The assay can be described thus: Binding affinity to double strand calf thymus DNA assessed as melting temperature. The class given is nucleic-acid assay. The settings on record: Bos taurus.
The subject of assay [2] is MOLT-4. Briefly: […] in human MOLT4 cells after 24 to 72 hrs by MTT assay. In kind it is functional, cell-based.
Assay [3] deals with Calf thymus DNA. The assay can be described thus: Binding affinity to calf thymus DNA assessed as exothermic enthalpy at 20 degC by isothermal titration […]. The class given is nucleic-acid assay. The settings on record: Bos taurus.

`CCCCCCCCCCCCCCCC(=O)OCC(CO[C@H]1O[C@H](CS(=O)(=O)O)[C@@H](O)[C@H](O)[C@H]1O)OC(=O)CCCCCCCCCCCCCCC` (stereo partly drawn): the Tm in assay [1] turned out to be 62 °C. This molecule yielded a concentration for half-maximal inhibition (IC50) in assay [2] of 8.3 µM. In addition, in assay [3], the Ka amounted to 5.64 ×10⁴ /M.
